Consider 1 compound from US20240150335A1, “FUSED RING DERIVATIVES CONTAINING 1,4-OXAZEPANE” (MEDSHINE DISCOVERY INC., priority 2021, published 2024).

In one data set the target is DPP1 of U937 cells (Homo sapiens (Human), UniProt P53634). As to the kind of experiment: Activity test of inhibiting DPP1 in U937 cells. Particulars: Gly-Phe-AFC probe, read-out: IC50, inhibitory activity on DPP1 of U937 cells. Format: cell-based. The procedure:
Experimental Example 2: Activity Test of Inhibiting DPP1 in U937 Cells
Experimental Materials: • 1) Experimental reagents and consumables
The cell plate was placed in a carbon dioxide incubator for 1 day; • (3) after incubation for 1 hour, 100 μM Gly-Phe-AFC probe solution was added thereto, that is, 60 mM Gly-Phe-AFC probe stock solution was diluted with culture medium to 500 μM working solution; the working solution in 10 μL per well was transferred into the cell plate, and the cell plate was incubated in a carbon dioxide incubator for 1 hour;
3) the plate was read, and the data were analyzed: • (1) plate reading: after the cell incubation was completed, the cell plate was taken out, and the plate was read on Victor Nivo.
Using the equation (Sample−Min)/(Max−Min)×100% to convert the raw data into inhibition rate, the IC50 value might be obtained by curve fitting with four parameters (obtained by “log (inhibitor) vs. response—Variable slope” mode in GraphPad Prism).

Data set [1] in a line: Pharmacokinetic evaluation in SD rats. It counts as in vivo. Particulars: oral administration 10.0 mg/kg. The procedure:
Experimental Example 4: Pharmacokinetic Evaluation of the Compound of the Present Disclosure in Rats
Experimental purpose: To test the pharmacokinetics of the compound in SD rats in vivo
Experimental materials: SD rats (male, 200 to 300 g, 6 to 10 weeks old, Beijing Vital River)
The pharmacokinetic characteristics of the compound in rodents after intravenous injection and oral administration were tested according to the standard protocol. In the experiment, the candidate compound was formulated into clear solutions, and a single intravenous injection and oral administration were respectively given to two rats. The vehicle of intravenous injection and oral administration is 5:95 DMSO and 10% hydroxypropyl β-cyclodextrin aqueous solution. The whole blood samples within 24 hours were collected in commercial EDTA2K anticoagulant tubes. The tubes were centrifuged at 6000 g for 3 minutes. The supernatant was separated to obtain plasma samples. 20 times the volume of acetonitrile solution containing internal standard was added to precipitate protein. The mixture was centrifuged. The supernatant was take out. An equal volume of water was added. Then the mixture was centrifuged to take the supernatant as the sample for sampling. Plasma concentration was quantitatively analyzed by LC-MS/MS analysis method, and pharmacokinetic parameters were calculated, such as apparent volume of distribution, clearance rate, half-life, area under the drug-time curve.

Data set [2] is described as follows: Mouse tissue (bone marrow) distribution. It counts as in vivo. Particulars: CD-1 mice. Here is the method:
Experimental Example 5: Evaluation of Mouse Tissue (Bone Marrow) Distribution of the Compound of the Present Disclosure
Experimental purpose: To test the distribution of the compound of the present disclosure in the bone marrow and plasma of CD-1 mice
Experimental materials: CD-1 mice (male, 20 to 40 g, 4 to 6 weeks old, Beijing Vital River)
The content of the compound in the bone marrow and plasma of mice after oral administration was tested according to the standard protocol. In the experiment, the candidate compound was formulated into a clear solution. The vehicle was 5:95 DMSO and 10% hydroxypropyl β-cyclodextrin aqueous solution. A dose of 5 mg/kg was given to mice as a single oral administration. The whole blood samples and bone marrow samples were collected at 0.25, 0.5, 1, 2, 4, 6, and 24 hours, respectively. The whole blood samples were collected in commercial EDTA2K anticoagulant tubes. The tubes were centrifuged at 6000 g for 3 minutes. The supernatant was separated to obtain plasma samples. The acetonitrile solution containing internal standard was added to precipitate protein. The mixture was centrifuged. The supernatant was take out. An equal volume of water was added. After mixing well, plasma concentration was quantitatively analyzed by LC-MS/MS analysis method, and the area under the drug-time curve was calculated. The femur and tibia on both sides of the mice were taken, and the muscle was removed. One end was cut off, placed in a centrifuge tube with the open end downwards. The tubes were centrifuged at 8000 rpm for 1 minute. The precipitate was bone marrow. The bone marrow was mixed with 50% methanol-water, grinded into a homogenate. The homogenate was added with an acetonitrile solution containing an internal standard to precipitate protein. The mixture was centrifuged to take the supernatant, added with an equal volume of water. After mixing well, the drug concentration in bone marrow was quantitatively analyzed by LC-MS/MS analysis method, and the area under the drug-time curve was calculated.
The calculation formula of bone marrow/plasma distribution coefficient is: Bone marrow/Plasma Ratio=bone marrow AUC0-last/plasma AUC0-last.

Setting [3] is: plasma, intravenous injection 2.0 mg/kg.
[4] abbreviates: bone marrow, 5 mg/kg single oral administration.

DPP1 of U937 cells, sequence (P53634 25-134): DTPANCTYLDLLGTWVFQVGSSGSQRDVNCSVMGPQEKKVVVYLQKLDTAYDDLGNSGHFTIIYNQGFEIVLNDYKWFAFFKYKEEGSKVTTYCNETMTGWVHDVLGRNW
DPP1 of U937 cells, sequence (P53634 231-394): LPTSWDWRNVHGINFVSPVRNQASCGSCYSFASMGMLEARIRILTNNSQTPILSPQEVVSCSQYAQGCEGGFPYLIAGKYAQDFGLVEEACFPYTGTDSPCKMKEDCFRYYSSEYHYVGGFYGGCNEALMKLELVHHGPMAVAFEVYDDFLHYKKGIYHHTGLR
DPP1 of U937 cells, sequence (P53634 395-463): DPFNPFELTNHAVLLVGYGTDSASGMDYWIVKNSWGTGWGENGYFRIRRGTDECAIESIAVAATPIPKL

Turning to `Cn1ncc2ccc(-c3ccc(C[C@@H](C#N)NC(=O)[C@@H]4CNCCCO4)c(F)c3)cc21` [Compound 8], the IC50 (in general, the point on the concentration scale where inhibition reaches its midpoint) at DPP1 of U937 cells came out at 2.4 nM. In data set [1] (intravenous injection 2.0 mg/kg), the “Bioavailability F” value came out at 39.1%. In data set [1] (setting [3]), the “Clearance rate CL” value was 0.786 L/h/kg and the “Volume of distribution at steady state Vdss” value is 1.9 L/kg. In addition, the Cmax in data set [1] (plasma, intravenous injection 2.0 mg/kg, read-out: Peak concentration Cmax) was 2.24 µM. In data set [1] (plasma), the “Area under drug-time curve AUC0-∞ PO” value came out at 11.864 µM·h and the “Half life T1/2 (PO)” value came to 3.2 h. In addition, the “Bone marrow/plasma distribution coefficient” value in data set [2] (5 mg/kg oral, bone marrow AUC0-last/plasma AUC0-last) is on record as 4.5. Also, in data set [2] (setting [4]), the “Bone marrow Area under drug-time curve AUC0-last PO” value was determined as 82362 nmol·h/kg and the “Bone marrow Peak concentration Cmax” value was 6113 nmol/kg. In addition, the “Plasma Area under drug-time curve AUC0-last PO” value in data set [2] (plasma, 5 mg/kg single oral administration) stood at 18.362 µM·h. The Cmax in data set [2] (plasma, 5 mg/kg single oral administration, read-out: Plasma Peak concentration Cmax) was found to be 2.3 µM.
